Source: patent publication US6900193B1, “Structural modification of 19-norprogesterone I: 17-α-substituted-11-β-substituted-4-aryl and 21-substituted 19-norpregnadienedione as new antiprogestational agents” (The United States of America as represented by the …, priority 1996, dated 2005)
Marks after values point to notes of the source that are not given here.

Legend:
[1] = tested on: progesterone-induced endometrial proliferation; assay: AntiClauberg test; format: in vivo, rabbit; conditions: Table 2, CDB-2914 = 100 (assigned)
Summary of the method: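 Immature NZW rabbits were estradiol-primed s.c. for 6 days, then given progesterone 0.8 mg/day s.c. plus compound orally or s.c. for 5 days. Uteri were sectioned and H&E-scored for endometrial glandular proliferation (McPhail). Percent inhibition was calculated per dose versus progesterone-only animals.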

[2] = target: T1, glucocorticoid receptor (estrogen-primed rabbit thymus) (Oryctolagus cuniculus, UniProt P59667); assay: Relative binding affinity, glucocorticoid receptor; conditions: estrogen-primed rabbit thymus, dexamethasone = 100%; for BINDING AFFINITY Glucocortic: Table 2
T1 construct: preparation of cytosols for the progesterone and glucocorticoid receptor assays; from tissue; host or cells: thymus of estradiol-primed immature female New Zealand White rabbits (cytosol)
T1 sequence (P59667 1-772): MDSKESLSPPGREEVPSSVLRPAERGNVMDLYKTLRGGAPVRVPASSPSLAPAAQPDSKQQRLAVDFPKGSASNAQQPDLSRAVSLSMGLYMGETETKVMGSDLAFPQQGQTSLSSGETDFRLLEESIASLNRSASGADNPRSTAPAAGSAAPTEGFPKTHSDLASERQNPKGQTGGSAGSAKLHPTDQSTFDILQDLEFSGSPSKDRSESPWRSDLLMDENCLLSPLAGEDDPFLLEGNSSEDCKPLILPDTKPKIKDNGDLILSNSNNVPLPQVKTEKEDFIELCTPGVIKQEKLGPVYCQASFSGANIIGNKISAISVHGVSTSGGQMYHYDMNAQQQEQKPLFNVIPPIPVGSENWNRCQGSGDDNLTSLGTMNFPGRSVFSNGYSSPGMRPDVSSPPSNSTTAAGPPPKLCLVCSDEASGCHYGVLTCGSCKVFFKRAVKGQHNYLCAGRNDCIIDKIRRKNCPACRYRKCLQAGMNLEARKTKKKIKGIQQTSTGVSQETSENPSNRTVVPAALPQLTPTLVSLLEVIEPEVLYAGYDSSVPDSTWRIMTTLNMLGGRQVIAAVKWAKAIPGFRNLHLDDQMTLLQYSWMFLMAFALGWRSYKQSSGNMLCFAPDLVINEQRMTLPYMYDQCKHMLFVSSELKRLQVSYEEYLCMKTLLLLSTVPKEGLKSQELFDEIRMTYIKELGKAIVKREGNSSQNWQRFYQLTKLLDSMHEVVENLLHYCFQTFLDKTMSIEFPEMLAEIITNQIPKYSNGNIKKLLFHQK

[3] = target: T2, progesterone receptor (estrogen-primed rabbit uterus) (Oryctolagus cuniculus, UniProt P06186); assay: Relative binding affinity, progesterone receptor; conditions: for BINDING AFFINITY Progester: Table 2
T2 construct: preparation of cytosols for the progesterone and glucocorticoid receptor assays; from tissue; host or cells: uterus of estradiol-primed immature female New Zealand White rabbits (cytosol)
T2 sequence (P06186 1-930): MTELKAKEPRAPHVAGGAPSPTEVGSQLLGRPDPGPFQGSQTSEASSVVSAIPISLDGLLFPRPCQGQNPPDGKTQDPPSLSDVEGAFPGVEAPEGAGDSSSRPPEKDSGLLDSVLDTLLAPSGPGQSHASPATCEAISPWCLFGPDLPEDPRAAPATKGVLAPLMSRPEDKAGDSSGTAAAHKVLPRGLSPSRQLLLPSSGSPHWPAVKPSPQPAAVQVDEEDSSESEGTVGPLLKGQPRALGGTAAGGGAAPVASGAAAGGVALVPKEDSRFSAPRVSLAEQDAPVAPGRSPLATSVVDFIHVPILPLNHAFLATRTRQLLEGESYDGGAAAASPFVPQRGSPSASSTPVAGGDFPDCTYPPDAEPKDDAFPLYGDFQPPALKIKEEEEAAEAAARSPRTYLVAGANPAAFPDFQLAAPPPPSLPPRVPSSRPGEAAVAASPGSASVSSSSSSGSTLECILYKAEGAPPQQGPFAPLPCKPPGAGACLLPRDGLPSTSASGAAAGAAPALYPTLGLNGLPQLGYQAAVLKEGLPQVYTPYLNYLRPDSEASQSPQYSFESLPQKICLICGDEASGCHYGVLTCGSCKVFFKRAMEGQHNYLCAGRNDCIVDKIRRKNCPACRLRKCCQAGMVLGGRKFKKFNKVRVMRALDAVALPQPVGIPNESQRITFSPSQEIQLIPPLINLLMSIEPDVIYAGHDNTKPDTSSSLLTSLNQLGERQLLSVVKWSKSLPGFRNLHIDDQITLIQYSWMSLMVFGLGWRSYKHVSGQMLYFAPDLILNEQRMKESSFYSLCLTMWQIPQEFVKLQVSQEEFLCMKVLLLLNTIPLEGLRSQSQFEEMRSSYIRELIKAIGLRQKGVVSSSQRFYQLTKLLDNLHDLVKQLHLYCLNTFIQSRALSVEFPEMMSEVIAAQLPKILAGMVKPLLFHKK

[4] = tested on: pregnancy (number and condition of conceptuses); assay: Postcoital test; format: in vivo, rat; conditions: rat, days 4-6 subcu
[5] = tested on: progesterone-induced endometrial proliferation; assay: AntiMcGinty test; format: in vivo, rabbit; conditions: relative potency, CDB-2914 = 100 (assigned); intraluminal, rabbit
Protocol: AntiMcGinty Test (McGinty, et al., Endocrinology, 24:829-832 (1939))
Immature female rabbits of the New Zealand White breed (approx. 1 kg body weight) were maintained under standard laboratory conditions and received a subcutaneous injection of 5 μg estradiol in 10% ethanol/sesame oil daily for 6 consecutive days. Twenty-four hours after the last injection of estradiol (day 7) animals underwent sterile abdominal surgery to ligate a 3-4 cm segment of both uterine horns. The experimental compound in appropriate solvent (usually 10% ethanol/sesame oil) was injected intraluminally into the ligated segment of one uterine horn and the vehicle alone into the ligated segment of the contralateral horn. Injection volume was limited to 0.1 ml, and care was taken to prevent leakage. A stimulating dose of progesterone (0.8 mg/day) was administered subcutaneously to each rabbit daily for the next three days (days 7, 8 and 9) for the purpose of inducing endometrial proliferation. All animals were sacrificed on day 10 when a segment central to the ligatures was removed and fixed in 10% neutral buffered formalin and submitted for histological processing. Five micron sections stained with hematoxylin and eosin (H&E) were evaluated microscopically for the degree of endometrial glandular proliferation according to the method of McPhail (McPhail, J. Physiol., 83:145 (1934). The percent inhibition of endometrial proliferation for each rabbit was calculated and the mean of the group of five animals recorded.

[6] = estrogen-primed rabbit uterus, progesterone = 100%

SMILES	BIOLOGICAL ACTIVITY antiClauberg ([1]; oral)	BINDING AFFINITY Glucocortic [2] [%]	BINDING AFFINITY Progester [3, 6] [%]	Postcoital MED100 (*) [4]	BIOLOGICAL ACTIVITY antiClauberg (subcu) ([1]; subcutaneous)	RELATIVE BINDING AFFINITY Glucocorticoid [2] [%]	ANTIPROGESTATIONAL Anti-McGinty [5]	RELATIVE BINDING AFFINITY Progesterone [3, 6] [%]	binding affinities compared with the standard, compound 69B ([3]; progesterone receptor implied (rabbit or human isoform A not specified))
CCC(=O)OC1(C(C)=O)CCC2C3CCC4=CC(=O)CCC4=C3C(c3ccc(N(C)C)cc3)CC21C (stereo not drawn) [Compound 69C, 17α-Propionoxy-11β-[4-(N,N-dimethylamino)phenyl]-19-norpregna-4,9-diene-3,20-dione]	˜10	49	91	2* mg/day	–	–	–	–	–
CCCCCCC(=O)O[C@]1(C(C)=O)CC[C@H]2[C@@H]3CCC4=CC(=O)CCC4=C3[C@@H](c3ccc(N(C)C)cc3)C[C@@]21C [Compound 69D, 17α-Heptanoyloxy-11β-[4-(N,N-dimethylamino)phenyl]-19-norpregna-4,9-diene-3,20-dione]	–	89	40	inac-	weak	–	–	–	–
CCC(=O)[C@@]1(OC(C)=O)CCC2C3CCC4=CC(=O)CCC4=C3C(c3ccc(N(C)C)cc3)C[C@@]21C (stereo partly drawn) [Compound 28, 17α-acetoxy-21-methyl-11β-[4-(N,N-dimethylamino)phenyl]-19-norpregna-4,9-diene-3,20-dione]	–	–	–	–	–	126	32	129	binding affinities greater than that observed for the standard
